Measured values taken from publication PMC7948503, “Optimization of a peptide ligand for the adhesion GPCR ADGRG2 provides a potent tool to explore receptor biology” (The Journal of Biological Chemistry, 2020).
Starred links: 1 amine or outer side, 2 acyl side, 3 side chain; linkers in the order of their positions; H or OH if unused. Positions of bridges follow the written chain, without caps; N, C: chain ends. Non-standard residues stand in square brackets, D forms with d. Residues, ends and D or L forms follow the SMILES beside them. No end group written: not given here. X1 = CC(=O)NC(C(=O)OC(C(C)C)C(N[*:1])C(=O)[*:2])C(O)C(C)C; Phe(4-Me) = Cc1ccc(C[C@H](N)C(=O)O)cc1; 1Nal = N[C@@H](Cc1cccc2ccccc12)C(=O)O; PhLac = O=C(O)[CH](O)Cc1ccccc1; NMeT = CN[CH](C(=O)O)[CH](C)O; NMeA = CN[CH](C)C(=O)O; NMeDha = C=C(NC)C(=O)O

What was measured:
[1] = target: T1, ADGRG2-FL (Mus musculus, UniProt Q8CJ12); assay: GloSensor cAMP assay, HEK293 transfected with ADGRG2-FL; format: cell-based; conditions: for EC50: HEK293 transfected with ADGRG2-FL, increasing peptide concentration, cAMP Glosensor, repeated 6 times; for p15 activity after alanine substitution (cAMP level): alanine scanning, 100 μM peptide, HEK293 ADGRG2-FL, Glosensor, compared with p15-WT, repeated six times
T1 construct: Wildtype ADGRG2 full-length (ADGRG2-FL) was cloned from mouse total cDNA libraries; expressed in transfected cells; host or cells: HEK293
T1 sequence (Q8CJ12 38-995 isoform Q8CJ12-3 limits assumed): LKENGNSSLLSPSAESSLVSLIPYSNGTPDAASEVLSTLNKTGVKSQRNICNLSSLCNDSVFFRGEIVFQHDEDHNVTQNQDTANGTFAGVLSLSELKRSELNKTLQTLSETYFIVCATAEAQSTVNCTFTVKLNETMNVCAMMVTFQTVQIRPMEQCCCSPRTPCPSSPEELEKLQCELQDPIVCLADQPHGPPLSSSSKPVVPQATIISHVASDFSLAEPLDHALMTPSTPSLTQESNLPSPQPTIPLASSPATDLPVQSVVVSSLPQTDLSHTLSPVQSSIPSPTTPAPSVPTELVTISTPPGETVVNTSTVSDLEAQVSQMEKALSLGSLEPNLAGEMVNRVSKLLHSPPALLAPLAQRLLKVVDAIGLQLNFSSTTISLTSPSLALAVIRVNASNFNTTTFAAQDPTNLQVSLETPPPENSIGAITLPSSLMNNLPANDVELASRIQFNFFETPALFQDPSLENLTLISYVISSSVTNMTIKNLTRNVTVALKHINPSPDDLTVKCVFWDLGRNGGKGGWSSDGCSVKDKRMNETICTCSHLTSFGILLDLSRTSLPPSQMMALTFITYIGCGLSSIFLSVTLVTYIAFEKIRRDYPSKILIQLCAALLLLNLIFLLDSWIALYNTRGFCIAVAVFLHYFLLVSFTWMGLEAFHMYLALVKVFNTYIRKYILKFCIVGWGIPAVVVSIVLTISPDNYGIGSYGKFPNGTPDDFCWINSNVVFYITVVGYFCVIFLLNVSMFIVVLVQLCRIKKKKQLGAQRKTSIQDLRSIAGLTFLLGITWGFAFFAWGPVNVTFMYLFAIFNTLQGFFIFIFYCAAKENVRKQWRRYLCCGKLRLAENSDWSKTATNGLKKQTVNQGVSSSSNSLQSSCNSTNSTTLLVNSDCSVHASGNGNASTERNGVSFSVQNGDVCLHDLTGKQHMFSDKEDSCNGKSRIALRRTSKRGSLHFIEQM
Text: (§1) Wildtype ADGRG2 full-length (ADGRG2-FL) was cloned from mouse total cDNA libraries using the following primers: forward, […]; reverse, […], and then ADGRG2-FL, ADGRG2 C-terminal truncation mutant (ADGRG2-β), and ADGRG2-ΔGPS-β (the entire ECD of ADGRG2 was deleted) were subcloned into the pcDNA3.1 expression vector. The ADGRG2-ΔGPS-β mutants (T610A, Y611A, C614A, S661A, W662A, I663A, L665A, Y666A，N667A, F671A, L679A, L683A, I730A, V731A, F741A, F747A, W757A, I758A, N759A, S760A, V762A, F764A, Y765A, V768A, V769A, F772A, V774A, W824A, F826A, F828A, F829A, V834A, V836A, F838A, M839A, I844A, F845A) were generated using a QuikChange Mutagenesis Kit (Stratagene). All mutations were verified by DNA sequencing.
(§2) Human embryonic kidney 293 (HEK293) cells were maintained in Dulbecco’s modified Eagle’s medium supplemented with 10% fetal bovine serum, penicillin (100 IU/ml), and streptomycin (100 μg/ml) as described ([6], [38]). For receptor or other protein expression, plasmids carrying the desired genes were transfected into cells using Lipofectamine 2000 (Invitrogen).
(§3) The Glosensor cAMP assay was performed as described ([6], [39], [40]). HEK293 cells were transfected with the GloSensor plasmid and the desired expression plasmids in 24-well dishes. Twenty-four hours after transfection, the cells were plated on 96-well plates at a cell density of 20,000 cells/well. The cells were maintained in Dulbecco’s modified Eagle’s medium for another 24 h, washed with PBS, and then incubated with 100 μl of solution containing 10% fetal bovine serum, 2% (v/v) GloSensor cAMP reagent, and 88% CO2-independent medium in each well for 2 h. The cAMP signal was examined using a luminescence counter (Mithras LB 940).

[2] = target: T2, ADGRG2-ΔGPS-β (Mus musculus, UniProt Q8CJ12); assay: GloSensor cAMP assay, HEK293 transfected with ADGRG2-ΔGPS-β; format: cell-based; conditions: cAMP Glosensor; for EC50: HEK293 transfected with ADGRG2-ΔGPS-β, increasing peptide concentration, repeated six times; for EC50 compared with wildtype p15 or other mutants: concentration-response curves, ADGRG2-ΔGPS-β
T2 construct: the entire ECD (including the entire GPS motif) was removed (ADGRG2-ΔGPS-β); expressed in transfected cells; host or cells: HEK293
T2 sequence (Q8CJ12 618-1009 limits assumed, stated change not applied): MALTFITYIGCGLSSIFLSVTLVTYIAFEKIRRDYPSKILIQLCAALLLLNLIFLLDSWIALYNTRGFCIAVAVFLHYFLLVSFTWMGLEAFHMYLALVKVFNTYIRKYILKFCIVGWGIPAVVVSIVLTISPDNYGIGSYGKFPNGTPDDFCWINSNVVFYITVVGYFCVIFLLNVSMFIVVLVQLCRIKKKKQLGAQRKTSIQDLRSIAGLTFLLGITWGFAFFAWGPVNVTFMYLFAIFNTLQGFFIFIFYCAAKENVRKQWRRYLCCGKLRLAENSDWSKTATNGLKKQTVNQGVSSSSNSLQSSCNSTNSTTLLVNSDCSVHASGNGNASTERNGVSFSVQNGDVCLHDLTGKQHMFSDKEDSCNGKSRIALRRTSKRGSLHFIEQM
Text: as §1, §2, §3

[3] = system: ADGRG2; assay: CalfluxVTN Ca2+ assay; format: cell-based, mouse; conditions: Gq/11 selective inhibitor
Method: For the Ca^2+ assays, HEK293 cells in 24-well dishes were cotransfected with plasmids encoding ADGRG2 or its mutants, CalfluxVTN constructs were used at a 6:1 ratio. Empty vector pcDNA3.1(+) was used to normalize the total amount of transfected plasmid DNA. The transfection and CalfluxVTN Ca^2+ assays were performed as previously reported ([28], [29], [41]) with minor modifications. In brief, 24 h post transfection, cells were harvested and distributed in 96-well flat-bottomed white microplates. After another 24 h, the cells were processed accordingly and then were added with the Nluc substrate furimazine (5 μM). The BRET signal was calculated by measuring the ratio of the light emitted by the Venus reporter (535 nm) relative to light emitted by the Nluc reporter (475 nm). The average baseline value (basal BRET ratio) recorded prior to agonist stimulation was subtracted from the experimental BRET signal values to obtain the ΔBRET ratio.

[4] = target: Rluc-ADGRG2-ΔGPS-β wildtype (mouse)

Molecule: TSFGILLDLSRTSLP [p15, reference compound]
- EC50 [1]: 175 µM
- EC50 [2]: 243 µM

Molecule: VSFGILLDLSRTSLP [T1V]
- EC50 compared with wildtype p15 or other mutants [2]: lower EC50 value than wildtype p15

Molecule: CC[C@H](C)[C@H](NC(=O)CNC(=O)[C@H](Cc1cccc2ccccc12)NC(=O)[C@H](CO)NC(=O)[C@@H](N)C(C)C)C(=O)N[C@@H](CC(C)C)C(=O)N[C@@H](CC(C)C)C(=O)N[C@@H](CC(=O)O)C(=O)N[C@@H](CC(C)C)C(=O)N[C@@H](CO)C(=O)N[C@@H](CCCNC(=N)N)C(=O)N[C@H](C(=O)N[C@@H](CO)C(=O)N[C@@H](CC(C)C)C(=O)N1CCC[C@H]1C(=O)O)[C@@H](C)O [T1V/F3(1-Nal)] (H-VS[1Nal]GILLDLSRTSLP-OH)
- EC50 [2]: 4.7 µM
- EC50 compared with wildtype p15 or other mutants [2]: significant lower EC50 than other mutants

Molecule: F3A: p15 alanine-scan mutant F3A (TSAGILLDLSRTSLP)
- p15 activity after alanine substitution (cAMP level) [1]: greatly impaired p15 activity

Molecule: TSFGILLDLSRTSAP [L14A]
- EC50 [1]: 274 µM

Molecule: C=C1C(=O)NC(C)C(=O)N(C)C(C)C(=O)NC(C(OC(=O)C(NC(C)=O)C(O)C(C)C)C(C)C)C(=O)N(C)C(C(C)OC)C(=O)OC(C)C(NC(C)=O)C(=O)OC(Cc2ccccc2)C(=O)N1C (centres unmarked) [YM-254890] (Ac-T[PhLac][NMeDha]A[NMeA][X1][NMeT](Me); ester 1-C; configuration not given here)
- inhibition of p15-elicited rise in intracellular calcium [3]: inhibited

Molecule: CC[C@H](C)[C@H](NC(=O)CNC(=O)[C@H](Cc1cccc2ccccc12)NC(=O)[C@H](CO)NC(=O)[C@@H](N)[C@@H](C)O)C(=O)N[C@@H](CC(C)C)C(=O)N[C@@H](CC(C)C)C(=O)N[C@@H](CC(=O)O)C(=O)N[C@@H](CC(C)C)C(=O)N[C@@H](CO)C(=O)N[C@@H](CCCNC(=N)N)C(=O)N[C@H](C(=O)N[C@@H](CO)C(=O)N[C@@H](CC(C)C)C(=O)N1CCC[C@H]1C(=O)O)[C@@H](C)O [F3(1-Nal)] (H-TS[1Nal]GILLDLSRTSLP-OH)
- EC50 compared with wildtype p15 or other mutants [2]: lower EC50 value than wildtype p15

Molecule: FITC-conjugated VPM-p15 (ADGRG2 Stachel peptide p15 T1V/F3Phe(4-Me))
- EC50 of cAMP accumulation (GloSensor assay), HEK293 cells transfected with ADGRG2-ΔGPS-β, increasing concentrations of VPM-p15 (without FITC) [4]: 1.41 µM
- fold change of the EC50 of cAMP accumulation (GloSensor assay) against the wildtype p15 peptide, ADGRG2-ΔGPS-β in HEK293 cells [4]: 170 fold

Molecule: CC[C@H](C)[C@H](NC(=O)CNC(=O)[C@H](Cc1ccc(C)cc1)NC(=O)[C@H](CO)NC(=O)[C@@H](N)[C@@H](C)O)C(=O)N[C@@H](CC(C)C)C(=O)N[C@@H](CC(C)C)C(=O)N[C@@H](CC(=O)O)C(=O)N[C@@H](CC(C)C)C(=O)N[C@@H](CO)C(=O)N[C@@H](CCCNC(=N)N)C(=O)N[C@H](C(=O)N[C@@H](CO)C(=O)N[C@@H](CC(C)C)C(=O)N1CCC[C@H]1C(=O)O)[C@@H](C)O [F3Phe(4-Me)] (H-TS[Phe(4-Me)]GILLDLSRTSLP-OH)
- EC50 compared with wildtype p15 or other mutants [2]: lower EC50 value than wildtype p15

Molecule: R11A: p15 alanine-scan mutant R11A (TSFGILLDLSATSLP)
- p15 activity after alanine substitution (cAMP level) [1]: greatly impaired p15 activity

Molecule: VSFGILLDLSRTSLP [ADGRG2 Stachel peptide p15 T1V]
- cAMP accumulation (GloSensor assay), HEK293 cells transfected with ADGRG2-ΔGPS-β, 100 μM peptide, against wildtype p15 [4]: 3 fold
